Results on 12 molecules are retold here after ChEMBL document CHEMBL1201862, “PubChem BioAssay data set” (2004).

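Test compounds were applied to cells in 96-well plates for 48 hours at 5 doses. Abbreviation: GI50, concentration required for 50% inhibition of growth.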 Active and inactive are the calls of the source. No stated cut-off is given here; in the data, active = GI50 up to about 1.1 µM and inactive = higher. Some results are limits rather than exact numbers.

What all share (assay): NCI anticancer screen, dose series, 48 h
Test [1] deals with SK-MEL-5.
Test [2] deals with UACC-62.
Test [3] relates to UO-31.
For test [4], the system named is SR.
In test [5] the test system is K562.
Test [6] has as its system NCI-H522.
For test [7], the system named is HL-60.
In test [8] the test system is RXF 393.
Test [9] relates to IGROV-1.
Test [10] relates to HT-29.
Test [11] has as its system ACHN.
Test [12] has as its system EKVX.
In test [13] the test system is RPMI-8226.
Test [14] has as its system M14.
The test system of test [15] is HOP-92.
Test [16] has as its system SN12C.
The test system of test [17] is UACC-257.
The test system of test [18] is NCI-H460.
Test [19] has as its system DU-145.
Test [20] has as its system MCF7.

As to `CCOc1ccc(N2C(=O)C3c4[nH]c5ccccc5c4C4CCC(C(C)(C)C)CC4C3C2=O)cc1` (stereo not given), the GI50 in test [1] is > 100 µM (inactive); in test [2], > 100 µM (inactive); in [3], 69.2 µM (inactive); in test [4], 42.8 µM (inactive); in [5] it was > 100 µM (inactive); in [6], 66.7 µM (inactive). Besides, the GI50 was 44.9 µM (inactive) in test [7]; 21.8 µM (inactive) in test [8]; > 100 µM (inactive) in test [9]; 32.1 µM (inactive) in [10]; 57.5 µM (inactive) in test [11]; > 100 µM (inactive) in test [12]. The GI50 is > 100 µM (inactive) in test [13]; > 100 µM (inactive) in [14]; > 100 µM (inactive) in [15]; 51.3 µM (inactive) in [16]; > 100 µM (inactive) in test [17].

`C=CCC1(C)CCCCC1(O)C[S+]([O-])c1ccccc1` (stereo not given): the GI50 in test [18], in [1], in test [2], in test [3], in [4] and in test [6] was > 100 µM (inactive) in each case. Also, the GI50 is 54.5 µM (inactive) in test [7]; > 100 µM (inactive) in test [8]; > 100 µM (inactive) in [9]; > 100 µM (inactive) in test [10]; > 100 µM (inactive) in test [11]; > 100 µM (inactive) in test [12]. The GI50 in test [13] was 33.7 µM (inactive); in [14], > 100 µM (inactive); in [15] it was > 100 µM (inactive); in test [16], > 100 µM (inactive); in [17], > 100 µM (inactive).

Consider `C=C1C(=O)OC2(C)C3CCC(C3)C12` (stereo not given), for which the GI50 in test [18] is 33 µM (inactive); in test [1], 87.1 µM (inactive); in test [2], 63.8 µM (inactive); in test [3] it was > 100 µM (inactive); in test [4] it was 29.6 µM (inactive); in test [5], 33.3 µM (inactive). The GI50 in test [6] is 21.7 µM (inactive); in [7], 19.9 µM (inactive); in [9] it was > 100 µM (inactive); in [10], 34.9 µM (inactive); in [11], > 100 µM (inactive); in test [12], 81.8 µM (inactive). In addition, the GI50 was 34.4 µM (inactive) in test [13], 27.7 µM (inactive) in test [14], 29 µM (inactive) in test [15] and 57.8 µM (inactive) in [16].

For the molecule `Cc1cc(C)c2c(c1)C/C(=C\c1cccc(C)c1C(=O)O)C2=O`, the GI50 was 41.8 µM (inactive) in [18]; 34.7 µM (inactive) in [1]; 47.8 µM (inactive) in [2]; 39.6 µM (inactive) in test [3]; > 100 µM (inactive) in [4]; 31.1 µM (inactive) in test [5]. Further, the GI50 in [6] is 30.8 µM (inactive); in [19], 52.2 µM (inactive); in test [7], > 100 µM (inactive); in [8], 72.9 µM (inactive); in test [9], 50.7 µM (inactive); in test [10] it was 72.6 µM (inactive). Moreover, the GI50 is 87.7 µM (inactive) in test [11]; 60.7 µM (inactive) in test [12]; 68.5 µM (inactive) in [13]; 88.9 µM (inactive) in test [14]; > 100 µM (inactive) in test [15]; 42.6 µM (inactive) in test [16]. In test [17], the GI50 is 33.3 µM (inactive).

Take `Cc1ccc(-c2c(C#N)c(-c3ccccc3)n(NS(=O)(=O)c3ccccc3)c(=O)c2C#N)cc1`: the GI50 is 61.7 µM (inactive) in test [18]; 34.6 µM (inactive) in test [1]; 95.5 µM (inactive) in test [2]; 76.2 µM (inactive) in test [20]; > 100 µM (inactive) in test [5]; 88.1 µM (inactive) in [6]. Also, the GI50 in test [8] is 63.4 µM (inactive); in test [9], 40.6 µM (inactive); in test [10], > 100 µM (inactive); in test [11] it was > 100 µM (inactive); in test [12], > 100 µM (inactive); in test [13] it was 19.6 µM (inactive). Moreover, the GI50 in test [14] was 93.3 µM (inactive); in test [15] it was 61.5 µM (inactive); in [16] it was > 100 µM (inactive); in test [17], > 100 µM (inactive).

Take `C=C[C@@H](C)[C@]1(C(=O)OC)CCCC12OCCO2`: the GI50 was > 100 µM (inactive) in test [18]; > 100 µM (inactive) in test [1]; > 100 µM (inactive) in test [2]; > 100 µM (inactive) in test [3]; 68.5 µM (inactive) in test [4]; > 100 µM (inactive) in test [5]. Moreover, the GI50 is 82.2 µM (inactive) in test [6]; > 100 µM (inactive) in [7]; > 100 µM (inactive) in [8]; > 100 µM (inactive) in test [9]; > 100 µM (inactive) in test [10]; > 100 µM (inactive) in test [11]. Besides, the GI50 in test [12] was > 100 µM (inactive); in [13] it was 72.9 µM (inactive); in test [14] it was > 100 µM (inactive); in [15] it was > 100 µM (inactive); in [16], > 100 µM (inactive); in [17] it was > 100 µM (inactive).

On to `O=C(c1ccc(Cl)cc1Cl)N(C(=O)N1CCCCC1)c1ccccc1`, for which the GI50 in test [1], in test [2], in test [3], in test [20], in test [5] and in [19] was > 100 µM (inactive) in each case. Also, the GI50 in test [7] was > 100 µM (inactive); in test [8], > 100 µM (inactive); in test [9], > 100 µM (inactive); in [10], > 100 µM (inactive); in test [11], > 100 µM (inactive); in [12], 5.45 µM (inactive). Besides, the GI50 in test [13], in test [14], in test [16] and in test [17] was > 100 µM (inactive) each time.

In the case of `O=C(N/N=C1/C(=O)N(c2ccc(Cl)cc2Cl)C(=O)C(=O)C1c1nc2ccccc2o1)c1ccccc1O` (stereo not given), the GI50 is 44.8 µM (inactive) in test [18]; 19 µM (inactive) in test [1]; 20.4 µM (inactive) in test [2]; 47.2 µM (inactive) in test [4]; 47 µM (inactive) in test [5]; 30.8 µM (inactive) in [6]. Besides, the GI50 in test [9] is 39.9 µM (inactive); in [10], 60.7 µM (inactive); in test [11] it was 37.5 µM (inactive); in test [12], 45.7 µM (inactive); in test [13], 43.4 µM (inactive); in test [14] it was 28.3 µM (inactive). Further, the GI50 was 30.5 µM (inactive) in test [15] and 33.8 µM (inactive) in test [16].

In the case of `O=C(NC1CCCCC1)NS(=O)(=O)c1ccc2c(c1)CCC2` [GLYHEXAMIDE], the GI50 in test [2], in [3], in [4], in [5], in test [6] and in test [7] was > 100 µM (inactive) in each case. Further, the GI50 in [8], in test [9], in test [11], in [12], in test [13] and in test [14] was > 100 µM (inactive) each time. For the same molecule, the GI50 in test [15], in test [16] and in [17] was > 100 µM (inactive) throughout.

Consider `O=S(=O)(O)SC/C=C\CSS(=O)(=O)O`, for which the GI50 in test [18] was 42.2 µM (inactive); in test [1], > 100 µM (inactive); in test [2] it was > 100 µM (inactive); in test [3], > 100 µM (inactive); in test [4] it was > 100 µM (inactive); in [5], > 100 µM (inactive). Moreover, the GI50 in test [6], in test [7], in test [8], in [9], in test [10] and in [11] was > 100 µM (inactive) throughout. Moreover, the GI50 in test [12], in [13], in [14], in test [15], in test [16] and in [17] was > 100 µM (inactive) in each case.

Regarding `COc1cc2cc(C(=O)N3CC(CCl)c4c3cc(NC(=O)C(C)Nc3c([N+](=O)[O-])cc(C(=O)NCCN(C)C)cc3[N+](=O)[O-])c3ccccc43)[nH]c2c(OC)c1OC` (stereo not given), the GI50 in test [18] was 0.0157 µM (active); in test [1], 0.104 µM (active); in test [2], 0.0586 µM (active); in [3] it was 0.451 µM (active); in test [20] it was 0.0118 µM (active); in [5], 0.0363 µM (active). Besides, the GI50 in [6] is 0.0172 µM (active); in test [19] it was < 0.0182 µM (active); in [9], 0.12 µM (active); in test [10], 0.055 µM (active); in test [11], 0.032 µM (active); in [12] it was 0.229 µM (active). The GI50 was 0.187 µM (active) in test [14], 0.0285 µM (active) in test [15], 0.105 µM (active) in test [16] and 0.182 µM (active) in [17].

As for `Cn1c(=O)nc2n(CCO)c(-c3ccccc3)c(-c3ccccc3)nc-2c1=O`, the GI50 in test [18] was 39.1 µM (inactive); in test [1], > 100 µM (inactive); in test [2] it was > 100 µM (inactive); in test [3] it was > 100 µM (inactive); in [4], > 100 µM (inactive); in test [5] it was > 100 µM (inactive). Moreover, the GI50 in [6], in test [19], in [8], in [9], in test [10] and in [11] was > 100 µM (inactive) each time. The GI50 in test [12], in [13], in [14], in test [15], in [16] and in test [17] was > 100 µM (inactive) throughout.
